The values below come from patent US11878072B2, “Compositions and methods utilizing poly(vinyl alcohol) and/or other polymers that aid particle transport in mucus” (priority 2012, dated 2024).

The text on this data set:
An aqueous dispersion containing pyrene and one of the stabilizers/surface-altering agents listed above was stirred with milling media until particle size was reduced below 500 nm (as measured by dynamic light scattering).

Tween 80: the “Sample (relative) <Vmean>rel (relative sample velocity)” value turned out to be 0.17 and the “Sample <Vmean> (ensemble-average velocity)” value is given as 0.94 um/s.

For the substance Tyloxapol, the “Sample (relative) <Vmean>rel (relative sample velocity)” value was −0.02 and the “Sample <Vmean> (ensemble-average velocity)” value stood at 0.42 um/s.
